Measurements: patent US20080194548A1, “Drug Combination Therapy and Pharmaceutical Compositions for Treating Inflammatory Disorders” (priority 2005, published 2008)

Tests used:
Female C57BL/6 mice = test: MOGp35-55-induced disease activity model in mice (oral gavage, daily disease activity score); assay type: in vivo; settings: single agent; for maximal extent and duration of disease activity: compared with control animals; for onset of disease symptoms: low and high doses, compared to animals that receive vehicle
cytokine TNFα = settings: microglia and astrocytes; cited from earlier work
[1] = tested on: inducible nitric oxide synthetase (i-NOS); settings: microglia and astrocytes; cited from earlier work
[2] = tested on: monocyte chemoattractant protein 1 (MCP1); settings: human peripheral blood mononuclear cells or cultured endothelial cells; cited from earlier work

SMILES	maximal extent and duration of disease activity (Female C57BL/6 mice)	onset of disease symptoms (Female C57BL/6 mice)	inhibition of the cytokine TNFα (cytokine TNFα)	inhibition of inducible nitric oxide synthetase (i-NOS) [1]	inhibition of MCP1 production [2]
CC(C)[C@]1(C(=O)N2COc3ccc(C(F)(F)F)cc3C2)CC[C@@H](N2CC[C@@H](c3cccc(C(=O)O)c3)[C@H](C)C2)C1 (single isomer, unassigned) [Compound 4, 3-[(3S,4R or 3R,4S)-1-((1R,3S)-3-Isopropyl-3-{[6-(trifluoromethyl)-2H-1,3-benzoxazin-3(4H)-yl]carbonyl}cyclopentyl)-3-methylpiperidin-4-yl]benzoic acid]	reduced compared with control animals	delayed in a dose-dependent manner			
CO[C@@H]1COCC[C@@H]1N[C@@H]1CC[C@@](C(=O)N2CCc3ncc(C(F)(F)F)cc3C2)(C(C)C)C1 [Compound 1, N-((1R,3S)-3-isopropyl-3-{[3-(trifluoromethyl)-7,8-dihydro-1,6-naphthyridin-6(5H)-yl]carbonyl}cyclopentyl)-N-[(3S,4S)-3-methoxytetrahydro-2H-pyran-4-yl]amine]	reduced compared with control animals	delayed in a dose-dependent manner			
CC[C@H](C)C(=O)O[C@H]1C[C@@H](C)C=C2C=C[C@H](C)[C@H](CC[C@@H]3C[C@@H](O)CC(=O)O3)[C@H]21 [Lovastatin, lovastatin]			inhibit	inhibit	inhibit
CC(C)c1c(C(=O)Nc2ccccc2)c(-c2ccccc2)c(-c2ccc(F)cc2)n1CC[C@@H](O)C[C@@H](O)CC(=O)O [atorvastatin]	reduced compared with control animals	delayed in a dose-dependent manner			
